In US8796268B2, “Heteroaryls and uses thereof” (Millennium Pharmaceuticals, Inc., priority 2010, dated 2014):
Where two headings read alike, the source gives them in different places.

What was measured:
Type in all cases: biochemical
[1] = target: T1, Human PI3K alpha (Homo sapiens, UniProt P42336); test: Human PI3K alpha enzyme assay (HTRF)
T1 construct: His (N); host or cells: SF9 insect cells (baculovirus)

[2] = target: T2, Human PI3K delta (Homo sapiens, UniProt O00329); test: Human PI3K delta enzyme assay (HTRF)
T2 construct: His (N); host or cells: SF9 insect cells (baculovirus)
T2 sequence (O00329 whole entry): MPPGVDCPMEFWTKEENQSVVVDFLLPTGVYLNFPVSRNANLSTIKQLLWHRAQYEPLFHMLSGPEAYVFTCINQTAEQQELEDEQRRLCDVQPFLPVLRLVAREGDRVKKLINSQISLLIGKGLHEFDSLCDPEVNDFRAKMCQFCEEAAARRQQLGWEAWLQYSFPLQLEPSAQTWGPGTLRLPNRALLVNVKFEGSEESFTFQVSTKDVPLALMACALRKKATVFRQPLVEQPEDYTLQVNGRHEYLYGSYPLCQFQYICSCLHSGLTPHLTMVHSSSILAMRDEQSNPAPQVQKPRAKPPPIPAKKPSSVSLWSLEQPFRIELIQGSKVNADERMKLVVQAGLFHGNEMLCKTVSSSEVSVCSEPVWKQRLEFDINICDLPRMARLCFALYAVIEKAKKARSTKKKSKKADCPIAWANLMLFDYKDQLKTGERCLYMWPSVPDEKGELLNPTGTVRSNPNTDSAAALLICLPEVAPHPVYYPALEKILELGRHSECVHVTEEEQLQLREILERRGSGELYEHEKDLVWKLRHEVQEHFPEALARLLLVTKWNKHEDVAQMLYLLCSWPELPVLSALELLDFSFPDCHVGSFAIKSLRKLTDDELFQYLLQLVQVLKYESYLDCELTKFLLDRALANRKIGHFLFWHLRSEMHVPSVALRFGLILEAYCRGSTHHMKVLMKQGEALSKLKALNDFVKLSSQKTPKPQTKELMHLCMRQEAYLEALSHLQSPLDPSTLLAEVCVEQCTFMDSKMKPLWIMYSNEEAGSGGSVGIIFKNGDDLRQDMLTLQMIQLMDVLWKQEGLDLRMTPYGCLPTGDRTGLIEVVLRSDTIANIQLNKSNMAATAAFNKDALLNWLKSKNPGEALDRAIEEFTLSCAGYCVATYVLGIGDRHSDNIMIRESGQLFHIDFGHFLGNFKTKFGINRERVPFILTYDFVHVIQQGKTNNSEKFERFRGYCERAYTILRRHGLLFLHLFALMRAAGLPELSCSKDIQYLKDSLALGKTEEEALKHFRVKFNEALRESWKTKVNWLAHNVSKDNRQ
T2 sequence (P27986 whole entry partner): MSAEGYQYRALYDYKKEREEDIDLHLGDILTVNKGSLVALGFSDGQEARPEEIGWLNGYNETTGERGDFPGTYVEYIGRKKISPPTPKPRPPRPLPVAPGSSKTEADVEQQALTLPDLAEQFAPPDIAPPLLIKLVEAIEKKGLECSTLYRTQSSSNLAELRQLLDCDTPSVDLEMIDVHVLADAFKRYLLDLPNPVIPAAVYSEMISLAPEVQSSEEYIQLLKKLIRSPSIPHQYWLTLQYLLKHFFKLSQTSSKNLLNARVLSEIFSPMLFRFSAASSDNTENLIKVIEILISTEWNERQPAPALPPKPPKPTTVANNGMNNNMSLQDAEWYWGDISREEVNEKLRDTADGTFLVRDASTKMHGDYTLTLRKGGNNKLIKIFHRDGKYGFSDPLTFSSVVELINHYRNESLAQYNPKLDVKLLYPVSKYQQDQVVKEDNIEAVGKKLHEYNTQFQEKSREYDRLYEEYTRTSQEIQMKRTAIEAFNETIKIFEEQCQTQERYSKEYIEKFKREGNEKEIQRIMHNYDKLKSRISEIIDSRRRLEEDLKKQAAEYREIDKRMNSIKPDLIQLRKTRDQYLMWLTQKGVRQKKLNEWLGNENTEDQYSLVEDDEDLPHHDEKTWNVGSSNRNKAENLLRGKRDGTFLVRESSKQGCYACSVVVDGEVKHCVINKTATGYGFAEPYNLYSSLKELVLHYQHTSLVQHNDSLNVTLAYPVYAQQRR
Source text: (§1) The catalytic subunits of PI3Ks are cloned into either pDEST8(p110 alpha) or pDEST10(p110beta, p110delta, and p110gamma) as N-terminal His tagged fusion proteins using the Gateway system (Invitrogen, catalog#11804-010 for pDEST8 and 11806-015 for pDEST10). The sequences are verified before recombinant protein expression using the Baculovirus Expression System with Gateway® Technology. The accession numbers for the subunits are as follows: • p110 alpha (GB:U79143) • p110beta (GB: S67334) • p110delta (GB: U86453) • p110gamma (GB: X83368) • The regulatory subunits of PI3Ks are cloned into pDEST8 as un-tagged protein using the Gateway system (Catalog#11804-010). The sequences are verified before recombinant protein expression using the Baculovirus Expression System with Gateway® Technology. The accession numbers for the subunits are as following: • p85 alpha (GB: BC030815) • p101(GB: AB028925) • VPS34 (accession number GB:BC033004) is cloned into pDEST20—Thombin as N-terminal GST tagged fusion proteins using the Gateway system (Invitrogen, catalog#11804-013). The sequences are verified before recombinant protein expression using the Baculovirus Expression System with Gateway® Technology.
(§2) For expression of the p110 complexes, the p85 (MOI of 4) is co-infected with p110 alpha, beta, and delta respectively (1MOI) in SF9 cells and harvested at 60 hours post co-infection. P110 gamma was infected at 1 MOI and harvested at 60 hours post infection.
(§3) For purification, PI3Ks are purified by Ni-NTA Agarose (Qiagen #30250) followed by Mono Q 10/100 GL (Ge Healthcare #17-5167-01). VPS34 is purified by Glutathione Sepharose 4 Fast Flow (GE Healthcare #17-5132-03) followed by HiTrap Q (GE Healthcare #17-1153-01).
(§4) 0.5 uL compounds in DMSO are added to wells of a 384 well microtitre plate (Corning 3575). At room temperature: 10 ul PI3K reaction buffer (50 mM Hepes, 5 mM DTT, 150 mM NaCl, 10 mM beta-glycerophosphate, 10 mM MgCl2, 0.25 mM sodium cholate and 0.001% CHAPS, pH 7.00) containing ATP (25 uM, Promega) is added followed immediately by 10 ul PI3K reaction buffer containing di-C8 P1(4,5)P2 (3.5 uM, CellSignals) and PI3Kalpha (0.4875 nM, Millennium Protein Sciences Group) and the mixture is incubated with shaking at room temperature for 30 minutes. Then 5 ul PI3K stop mix (50 mM Hepes, 5 mM DTT, 150 mM NaCl, 0.01% Tween-20, 15 mM EDTA and 25 nM biotin-PI(3,4,5)P3 (Echelon) is added to quench the reaction followed immediately by addition of 5 ul HTRF detection mix (50 mM Hepes, 5 mM DTT, 150 mM NaCl, 0.01% Tween-20, 40 mM KF, 1.0 nM GST:GRP-1 PH domain (Millennium Protein Sciences Group), 15 nM Streptavidin-XL (CisBio) and 0.375 nM anti-GST Eu++ antibody (CisBio) at pH 7.00). The plates are then incubated for 1 hour at room temperature with shaking and then read on a BMG PheraStar Plus reader.
(§5) 2) Human PI3K beta, delta and gamma isoforms are tested using the procedure described for PI3K alpha above but with the following changes: PI3K beta (5.25 nM), PI3K delta (0.75 nM) and PI3K gamma (5 nM). All isoforms supplied by Millennium Protein Science Group.
(§6) For the assay methods described above, test compound percent inhibition, at various concentrations, is calculated relative to control (DMSO and EDTA) treated samples. Compound concentration versus percent inhibition curves are fitted to generate IC50 values. One skilled in the art will appreciate that the values generated either as percentage inhibition at a single concentration or IC50 values are subject to experimental variation.

[3] = target: T3, Human PI3K gamma (Homo sapiens, UniProt P48736); test: Human PI3K gamma enzyme assay (HTRF)
T3 construct: His (N); host or cells: SF9 insect cells (baculovirus)
T3 sequence (P48736 whole entry): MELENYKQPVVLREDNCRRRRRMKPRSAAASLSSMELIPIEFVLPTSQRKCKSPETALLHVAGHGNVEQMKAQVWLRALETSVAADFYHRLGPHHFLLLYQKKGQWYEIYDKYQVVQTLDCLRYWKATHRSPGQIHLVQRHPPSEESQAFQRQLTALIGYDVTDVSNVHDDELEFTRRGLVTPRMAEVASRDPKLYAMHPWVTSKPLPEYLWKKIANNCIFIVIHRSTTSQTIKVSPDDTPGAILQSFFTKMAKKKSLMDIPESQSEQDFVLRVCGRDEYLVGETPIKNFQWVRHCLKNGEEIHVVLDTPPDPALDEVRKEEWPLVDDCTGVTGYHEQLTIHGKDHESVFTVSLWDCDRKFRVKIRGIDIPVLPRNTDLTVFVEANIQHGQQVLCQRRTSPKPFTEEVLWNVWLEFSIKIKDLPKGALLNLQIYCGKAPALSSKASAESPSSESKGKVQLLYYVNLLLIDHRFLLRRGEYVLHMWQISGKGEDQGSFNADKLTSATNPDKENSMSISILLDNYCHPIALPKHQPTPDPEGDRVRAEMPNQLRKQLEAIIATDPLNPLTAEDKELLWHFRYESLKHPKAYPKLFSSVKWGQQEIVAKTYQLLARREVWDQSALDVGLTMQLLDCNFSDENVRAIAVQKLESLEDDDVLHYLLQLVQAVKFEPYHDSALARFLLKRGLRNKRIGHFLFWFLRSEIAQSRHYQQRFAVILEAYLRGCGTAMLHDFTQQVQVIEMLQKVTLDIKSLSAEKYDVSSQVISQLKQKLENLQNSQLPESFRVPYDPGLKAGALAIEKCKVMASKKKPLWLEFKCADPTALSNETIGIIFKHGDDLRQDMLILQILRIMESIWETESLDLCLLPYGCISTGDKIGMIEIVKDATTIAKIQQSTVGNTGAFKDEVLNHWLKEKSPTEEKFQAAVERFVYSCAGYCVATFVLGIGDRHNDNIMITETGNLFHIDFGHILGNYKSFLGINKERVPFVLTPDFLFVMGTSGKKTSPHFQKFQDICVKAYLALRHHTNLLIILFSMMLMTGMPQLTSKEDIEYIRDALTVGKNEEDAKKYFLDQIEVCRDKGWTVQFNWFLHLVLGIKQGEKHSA
Source text: as §1, §2, §3, §4, §5, §6

[4] = target: T4, Human PI3K beta (Homo sapiens, UniProt P42338); test: Human PI3K beta enzyme assay (HTRF)
T4 construct: His (N); host or cells: SF9 insect cells (baculovirus)
T4 sequence (P42338 whole entry): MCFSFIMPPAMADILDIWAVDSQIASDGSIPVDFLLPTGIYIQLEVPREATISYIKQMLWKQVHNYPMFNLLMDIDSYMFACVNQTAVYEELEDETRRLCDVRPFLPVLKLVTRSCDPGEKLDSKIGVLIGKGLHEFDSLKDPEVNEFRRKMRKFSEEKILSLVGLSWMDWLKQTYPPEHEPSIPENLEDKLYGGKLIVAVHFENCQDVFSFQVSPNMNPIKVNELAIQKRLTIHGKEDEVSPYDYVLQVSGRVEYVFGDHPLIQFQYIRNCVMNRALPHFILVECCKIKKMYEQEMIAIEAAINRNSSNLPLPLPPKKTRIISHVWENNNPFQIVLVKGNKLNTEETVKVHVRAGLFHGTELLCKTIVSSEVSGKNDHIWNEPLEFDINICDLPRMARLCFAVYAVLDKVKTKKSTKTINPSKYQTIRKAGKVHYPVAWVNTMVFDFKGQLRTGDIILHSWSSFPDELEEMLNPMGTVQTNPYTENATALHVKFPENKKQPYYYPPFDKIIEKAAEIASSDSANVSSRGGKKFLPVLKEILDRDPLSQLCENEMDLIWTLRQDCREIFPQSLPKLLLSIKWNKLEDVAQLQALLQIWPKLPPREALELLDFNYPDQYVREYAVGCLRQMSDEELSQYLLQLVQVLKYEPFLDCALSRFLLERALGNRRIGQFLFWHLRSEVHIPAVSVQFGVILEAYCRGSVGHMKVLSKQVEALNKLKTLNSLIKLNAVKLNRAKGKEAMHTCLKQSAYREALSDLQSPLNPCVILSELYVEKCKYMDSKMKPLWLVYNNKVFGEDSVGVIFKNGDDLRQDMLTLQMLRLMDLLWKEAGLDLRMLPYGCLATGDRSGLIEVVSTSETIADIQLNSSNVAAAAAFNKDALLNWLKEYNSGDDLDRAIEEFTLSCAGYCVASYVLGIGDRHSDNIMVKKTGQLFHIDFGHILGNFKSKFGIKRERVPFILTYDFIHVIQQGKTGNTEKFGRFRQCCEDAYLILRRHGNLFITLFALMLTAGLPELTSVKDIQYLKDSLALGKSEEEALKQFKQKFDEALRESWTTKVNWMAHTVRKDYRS
T4 sequence (P27986 whole entry partner): as the sequence (P27986 whole entry partner) above
How it was run: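 Compounds were mixed with 25 uM ATP, then with 3.5 uM di-C8 PI(4,5)P2 and His-tagged PI3K isoform (β 5.25 nM, δ 0.75 nM, γ 5 nM) at pH 7.00. After 30 min at room temperature, EDTA stopped the reaction and PIP3 was measured by HTRF over 1 h.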

[5] = concentration not given, b1387 states 1.1 μM for PI3K α and β, read-out: p110 alpha Percent Inhibition
[6] = concentration not given, b1389 states 1.0 μM for PI3K δ and γ, read-out: p110 delta Percent Inhibition
[7] = concentration not given, b1389 states 1.0 μM for PI3K δ and γ, read-out: p110 gamma Percent Inhibition
[8] = concentration not given, b1387 states 1.1 μM for PI3K α and β, read-out: p110 beta Percent Inhibition
[9] = concentration not given, b1387 states 1.1 μM for PI3K α and β
[10] = concentration not given, b1389 states 1.0 μM for PI3K δ and γ

T1 sequence (P42336 whole entry): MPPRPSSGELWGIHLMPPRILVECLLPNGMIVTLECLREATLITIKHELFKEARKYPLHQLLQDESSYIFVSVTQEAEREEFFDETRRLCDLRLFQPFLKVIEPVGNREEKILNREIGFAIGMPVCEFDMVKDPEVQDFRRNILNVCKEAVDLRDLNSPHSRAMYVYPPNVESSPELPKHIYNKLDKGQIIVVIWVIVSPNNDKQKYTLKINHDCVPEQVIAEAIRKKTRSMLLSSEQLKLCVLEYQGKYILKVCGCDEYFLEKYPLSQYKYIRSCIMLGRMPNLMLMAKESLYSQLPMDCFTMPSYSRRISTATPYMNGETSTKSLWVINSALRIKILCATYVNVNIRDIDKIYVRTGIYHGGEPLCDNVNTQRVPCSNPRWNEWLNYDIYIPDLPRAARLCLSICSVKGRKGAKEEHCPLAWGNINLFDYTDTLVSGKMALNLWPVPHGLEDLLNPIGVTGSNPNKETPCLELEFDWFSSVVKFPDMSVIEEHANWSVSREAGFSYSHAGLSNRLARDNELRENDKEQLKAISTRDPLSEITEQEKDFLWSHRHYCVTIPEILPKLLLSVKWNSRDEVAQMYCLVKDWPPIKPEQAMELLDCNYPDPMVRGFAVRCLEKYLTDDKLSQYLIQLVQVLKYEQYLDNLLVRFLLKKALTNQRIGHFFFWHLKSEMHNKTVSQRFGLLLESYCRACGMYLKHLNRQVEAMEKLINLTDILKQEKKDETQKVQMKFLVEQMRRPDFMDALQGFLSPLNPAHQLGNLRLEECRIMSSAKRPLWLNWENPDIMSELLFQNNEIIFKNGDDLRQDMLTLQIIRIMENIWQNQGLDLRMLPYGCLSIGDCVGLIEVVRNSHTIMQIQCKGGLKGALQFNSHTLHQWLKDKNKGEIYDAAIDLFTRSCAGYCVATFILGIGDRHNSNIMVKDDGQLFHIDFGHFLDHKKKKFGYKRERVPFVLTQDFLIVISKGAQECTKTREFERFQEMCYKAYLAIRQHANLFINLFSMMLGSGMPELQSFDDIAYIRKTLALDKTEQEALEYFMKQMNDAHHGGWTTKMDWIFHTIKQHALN
T1 sequence (P27986 whole entry partner): as the sequence (P27986 whole entry partner) above

| inhibition at 1.1 µM [1, 5] [%] | inhibition at 1 µM [2, 6] [%] | inhibition at 1 µM [3, 7] [%] | inhibition at 1.1 µM [4, 8] [%] | Compound | further results |
| --- | --- | --- | --- | --- | --- |
| 76 | 109 | 35 | 109 | CC(=O)Nc1cc(-c2cc([C@@H](c3ccc(Cl)cc3)N3CCC3)c(-c3nnc[nH]3)s2)ccn1 (single isomer, unassigned) [Compound 176] | – |
| – | – | – | – | CC(=O)Nc1cc(-c2cc(C(c3ccc(Cl)cc3)N3CCC[C@H]3CO)c(-c3nnc[nH]3)s2)ccn1 (single isomer, unassigned) [Compound 192] | p110 alpha Percent Inhibition [1, 9]: 48%; p110 delta Percent Inhibition [2, 10]: 100%; p110 gamma Percent Inhibition [3, 10]: 12%; p110 beta Percent Inhibition [4, 9]: 90% |
| 70 | 90 | 25 | 101 | CC(=O)Nc1cc(-c2cc([C@@H](c3ccc(Cl)cc3)N(C)C)c(-c3nnc[nH]3)s2)ccn1 (single isomer, unassigned) [Compound 204] | – |
| 59 | 104 | 27 | 107 | CC(=O)Nc1cc(-c2cc([C@H](c3ccc(Cl)cc3)N3CCC3)c(-c3nnc[nH]3)s2)ccn1 (single isomer, unassigned) [Compound 241] | – |
| – | 101 | – | 100 | CC(=O)Nc1cc(-c2cc(C(c3ccc(Cl)cc3)N3CCC[C@H]3CO)c(-c3nnc[nH]3)s2)ccn1 (single isomer, unassigned) [Compound 259] | p110 alpha Percent Inhibition [1, 9]: 69%; p110 gamma Percent Inhibition [3, 10]: 25% |
| 79 | 105 | 33 | 113 | CC(=O)Nc1cc(-c2cc([C@H](c3ccc(Cl)cc3)N(C)C)c(-c3nnc[nH]3)s2)ccn1 (single isomer, unassigned) [Compound 261] | – |
| – | – | – | – | CC(=O)Nc1cc(-c2cc(C(c3ccc(Cl)cc3)N3CCC[C@@H]3CO)c(-c3nnc[nH]3)s2)ccn1 (single isomer, unassigned) [Compound 283] | p110 alpha Percent Inhibition [1, 9]: 96%; p110 delta Percent Inhibition [2, 10]: 99%; p110 gamma Percent Inhibition [3, 10]: 18%; p110 beta Percent Inhibition [4, 9]: 98% |
| – | – | – | – | O=C(O)c1sc(N2CCOCC2)nc1Cc1ccc(Cl)cc1 [Compound 91, 4-(4-chlorobenzyl)-2-morpholinothiazole-5-carboxylic acid] | inhibition at 1.1 µM ([1]; at a 1.1 μM concentration, read-out: PI3Kα Percent Inhibition): 27%; IC50 ([1]; read-out: PI3Kalpha IC50): > 1000 nM; inhibition at 1 µM ([2]; at a 1.0 μM concentration, read-out: PI3Kδ Percent Inhibition): 84.8%; inhibition at 1 µM ([3]; at a 1.0 μM concentration, read-out: PI3Kγ Percent Inhibition): 15.4%; inhibition at 1.1 µM ([4]; at a 1.1 μM concentration, read-out: PI3β Percent Inhibition): 105%; IC50 ([4]; read-out: PI3 Kbeta IC50): < 100 nM |
| 83 | 109 | 32 | 106 | CC(=O)Nc1cc(-c2cc(C(NCC3CNC3)c3ccc(Cl)cc3)c(-c3nnc[nH]3)s2)ccn1 (stereo not drawn) [Compound 129] | – |
| 21 | 62 | 22 | 73 | COc1ccc(C(O)c2cc(-c3ccncc3)sc2-c2nnc[nH]2)cc1F (stereo not drawn) [Compound 130] | – |
| 75 | 80 | 5 | 78 | CC(=O)Nc1cc(-c2sc(-c3nnc[nH]3)c([S+]([O-])c3ccc(Cl)cc3)c2C#N)ccn1 (stereo not drawn) [Compound 131, N-{4-[4-[(4-chlorophenyl)sulfinyl]-3-cyano-5-(4H-1,2,4-triazol-3-yl)-2-thienyl]pyridin-2-yl}acetamide] | – |
| 45 | 77 | 53 | 103 | OC(c1cnc2ccccc2c1)c1cc(-c2ccncc2)sc1-c1nnc[nH]1 (stereo not drawn) [Compound 132] | – |
| 84 | 74 | 26 | 101 | OC(c1nc(-c2ccccc2)cs1)c1cc(-c2ccncc2)sc1-c1nnc[nH]1 (stereo not drawn) [Compound 133] | – |
| 21 | 44 | 8 | 72 | OC(c1ccc2c(c1)OC(F)(F)O2)c1cc(-c2ccncc2)sc1-c1nnc[nH]1 (stereo not drawn) [Compound 134] | – |
| 78 | 99 | 8 | 87 | CC(=O)Nc1cc(-c2cc(C(NCC(F)(F)F)c3ccc(Cl)cc3)c(-c3nnc[nH]3)s2)ccn1 (stereo not drawn) [Compound 135] | – |
| – | 109 | 67 | 110 | OC(c1cc2ccccc2cc1F)c1cc(-c2ccncc2)sc1-c1nnc[nH]1 (stereo not drawn) [Compound 136] | p110 alpha Percent Inhibition [1, 9]: 80% |
| 12 | 30 | 12 | 54 | Clc1cccc(Cc2nc(-c3ccncc3)sc2-c2nnc[nH]2)c1 [Compound 137] | – |
| 43 | 69 | 13 | 86 | Cc1c(F)cccc1C(O)c1cc(-c2ccncc2)sc1-c1nnc[nH]1 (stereo not drawn) [Compound 138] | – |
| – | 112 | – | – | N#Cc1c(N2CCOCC2)sc(C(=O)O)c1Cc1ccc2ccc(F)cc2c1 [Compound 287] | – |
| – | 110 | – | – | N#Cc1c(N2CCOCC2)sc(C(=O)O)c1Cc1ccc2ccccc2c1F [Compound 293] | – |
| – | 112 | – | – | N#Cc1c(N2CCOCC2)sc(C(=O)O)c1Cc1cc2ccccc2cc1F [Compound 295] | – |
| – | 97 | – | – | N#Cc1c(N2CCOCC2)sc(C(=O)O)c1Cc1cc(F)c(Cl)cc1F [Compound 300] | – |
| – | 74 | – | – | N#Cc1c(N2CCOCC2)sc(C(=O)O)c1Cc1ccc2c(c1)CCCC2 [Compound 305] | – |
| – | 62 | – | – | N#Cc1c(N2CCOCC2)sc(C(N)=O)c1C(F)(F)c1ccc2ccccc2c1 [Compound 307] | – |
| – | 92 | – | – | N#Cc1c(N2CCOCC2)sc(C(=O)O)c1C(F)(F)c1ccc2ccccc2c1 [Compound 308] | – |
| – | 113 | – | – | N#Cc1c(N2CCOCC2)sc(C(=O)O)c1Cc1cc(F)c2ccccc2c1 [Compound 324] | – |
| – | – | – | – | COC(c1ccc2ccccc2c1)c1c(C(=O)O)sc(N2CCOCC2)c1C#N (stereo not drawn) [Compound 337] | p110 delta Percent Inhibition [2, 10]: 46% |
| – | 113 | – | – | N#Cc1c(N2CCOCC2)sc(C(=O)O)c1Cc1ccc2c(F)cccc2c1 [Compound 343] | – |
| – | 83 | – | – | N#Cc1c(N2CCOCC2)sc(C(=O)O)c1C(F)c1ccc2ccccc2c1 (stereo not drawn) [Compound 345] | p110 alpha Percent Inhibition [1, 9]: 64% |
| – | 96 | – | – | N#Cc1c(N2CCOCC2)sc(-c2nnn[nH]2)c1C(F)(F)c1ccc2ccccc2c1 [Compound 349] | – |
